In patent US4542169A, “Biomedical devices containing isothiazolones to control bacteria growth” (Rohm and Haas Company, priority 1983, dated 1985):
≈ marks a conversion by molar mass, not a printed value. Where a name gives a salt, the structure may show the parent alone. One block for each compound: values may come before it.

Legend:
Candida albicans (yeast) = assay: Minimum inhibitory concentration, fungistatic activity; format: cell-based; settings: Table III: Active Ingredient MIC
Pseudomonas aeruginosa = assay: Minimum inhibitory concentration, bacteriostatic activity; format: cell-based; settings: Table III: Active Ingredient MIC
Escherichia coli = assay: as above; format: cell-based; settings: Table III: Active Ingredient MIC
Aspergillus niger = assay: Minimum inhibitory concentration, fungistatic activity; format: cell-based; settings: Table III: Active Ingredient MIC
Aureobasidium pullulans = assay: as above; format: cell-based; settings: Table III: Active Ingredient MIC
Staphylococcus aureus = assay: Minimum inhibitory concentration, bacteriostatic activity; format: cell-based; settings: Table III: Active Ingredient MIC
[1] = system: Aerobasidium pullulans (A.p); assay: Zone of inhibition, polyvinyl chloride film; format: cell-based; settings: PVC film
Solubility in H2O = format: physicochemical; settings: water
[2] = system: Staphlococcus aureus (S.a); assay: Zone of inhibition, polyvinyl chloride film discs on inoculated agar; format: cell-based; settings: for Zone of Inhibition: PVC film; for Zones: PVC
Description: (§1) In a two-liter, three-necked, round-bottom, flask equipped with a mechanical stirrer was placed 100 g of polyvinyl chloride, 590 g of reagent grade tetrahydrofuran, and 40.0 g of dioctylphthalate. This was stirred with gentle heating (35°-40° C.) for two hours to completely dissolve the polyvinyl chloride. Then, a barium/calcium salt of a fatty acid (3.5 g), a phosphite chelating agent (1.5 g), stearic Acid (0.25 g) and epoxidized soy bean oil (7.5 g), were mixed with 21 g of tetrahydrofuran and added to the polyvinyl chloride solution. After stirring at room temperature for 30 minutes, the solution was ready for use.
(§2) Films containing the isothiazolones were cast by first preparing a 0.5 weight percent polyvinyl chloride solution by adding the isothiazolone to the polyvinyl chloride solution. Then, portions of the 0.5% solution were diluted to 0.1 and 0.05%. The films were drawn down on 12"×12" glass plates using a 50 mil-3" wide coating bar and the films were allowed to air dry for 48 hours.
(§3) The films were cut into 1.25 cm discs and placed in agar plates inoculated with Staphlococcus aureus (S.a) or Echerichia coli (E.c.).

Echerichia coli (E.c.) = assay: as above; format: cell-based; settings: for Zone of Inhibition: PVC film; for Zones: PVC
Description: as §1, §2, §3

[3] = system: Aerobasidium pullulans (A.p); assay: Growth of fungus on polyvinyl chloride film; format: cell-based; set-up: key: 0: zero (no growth); 5: five (heavy growth); settings: PVC film
Description: as §1, §2
(§4) In addition to zones of inhibition, the films were observed by growth of fungus on the film and rated from zero (no growth) to five (heavy growth).

Aspergillis niger (A.n.) [4] = assay: Growth of fungus on polyvinyl chloride film; format: cell-based; set-up: key: 0: zero (no growth); 5: five (heavy growth); settings: PVC film
Description: as §1, §2, §4

Aspergillis niger (A.n.) [5] = assay: Zone of inhibition, polyvinyl chloride film; format: cell-based; settings: PVC film
E.c. = assay: Zone of inhibition, silicone rubber film discs on inoculated agar; format: cell-based, Echerichia coli; settings: for Zone of Inhibition: silicone rubber film; for Zones: Silicone
Description: as §3
(§5) The films were cut into discs and tested as in example one against S.a. and E.c.

S.a. = assay: as above; format: cell-based, Staphlococcus aureus; settings: S.a.; for Zone of Inhibition: silicone rubber film; for Zones: Silicone
Description: as §3, §5

P.a. = assay: Zone of inhibition, silicone film; format: cell-based, Pseudomonas aeruginosa
[6] = system: Pseudomonas aeruginosa (P.a.); assay: Zone of inhibition, polyvinyl chloride (vinyl) film discs; format: cell-based; settings: PVC
Description: as §1, §3
Discs were tested against Pseudomonas aeruginosa (P.a.). The 1.0% films gave a slight zone of inhibition while the 5.0% film gave a 1 mm zone of inhibition.

Compound: O=c1c(Cl)c(Cl)sn1Cc1ccccc1 [Compound 2, 4,5-Dichloro-N--benzyl-isothiazolin-3-one]
Zone of Inhibition ([1]; 0.05%): 0 mm
Zone of Inhibition ([1]; 0.1%): 0 mm
Zone of Inhibition ([1]; 0.5%): 4.8 mm
solubility (Solubility in H2O): 195 µg/mL (≈ 750 µM)
Zone of Inhibition ([2]; 0.05%): 2.0 mm
Zone of Inhibition ([2]; 0.1%): 3.8 mm
Zone of Inhibition (Echerichia coli (E.c.); 0.05%): 0 mm
Zone of Inhibition (Echerichia coli (E.c.); 0.1%): 0 mm
Zone of Inhibition (Echerichia coli (E.c.); 0.5%): 3.3 mm
Growth on Film ([3]; 0.05%): 4
Growth on Film ([3]; 0.1%): 0
Growth on Film ([3]; 0.5%): 0
Growth on Film (Aspergillis niger (A.n.) [4]; 0.05%): 4
Growth on Film (Aspergillis niger (A.n.) [4]; 0.1%): 0
Growth on Film (Aspergillis niger (A.n.) [4]; 0.5%): 0
Zone of Inhibition (Aspergillis niger (A.n.) [5]; 0.05%): 0 mm
Zone of Inhibition (Aspergillis niger (A.n.) [5]; 0.1%): 0 mm
Zone of Inhibition (Aspergillis niger (A.n.) [5]; 0.5%): 4.3 mm

Compound: CCN1CCN(C(=O)N[C@@H](C(=O)N[C@@H]2C(=O)N3[C@@H]2SC(C)(C)[C@@H]3C(=O)O)c2ccccc2)C(=O)C1=O [P, Piperacillin Na, reference compound]
Zones ([2]; 1.0%): slight
Zones ([2]; 5.0%): 13.8 mm
Zones ([2]; .04%): 0 mm
Zones ([2]; .20%): 0 mm
Zones (Echerichia coli (E.c.); 1.0%): 0 mm
Zones (Echerichia coli (E.c.); .04%): 0 mm
Zones (Echerichia coli (E.c.); .20%): 0 mm
Zones (E.c.; 1.0%): 13.3 mm
Zones (E.c.; 5.0%): 17.3 mm
Zones (E.c.; .04%): 0 mm
Zones (E.c.; .20%): 0.8 mm
Zones (P.a.; 1.0%): 5.3 mm
Zones (P.a.; 5.0%): 13.3 mm
Zones (P.a.; .04%): 0 mm
Zones (P.a.; .20%): 0 mm
Zones (S.a.; 1.0%): 14.8 mm
Zones (S.a.; 5.0%): 21.3 mm
Zones (S.a.; .04%): 0 mm
Zones (S.a.; .20%): 0 mm
Zones ([6]; 1.0%): 0 mm
Zones ([6]; 5.0%): 9.8 mm
Zones ([6]; .04%): 0 mm
Zones ([6]; .20%): 0 mm

Compound: CN(C)C1C(=O)C(C(N)=O)=C(O)C2(O)C(=O)C3=C(O)c4c(O)cccc4C(C)(O)C3CC12 (stereo not drawn) [T, Tetracycline HCl, reference compound]
Zones ([2]; 1.0%): 11.3 mm
Zones ([2]; 5.0%): 19.8 mm
Zones ([2]; .04%): 0 mm
Zones ([2]; .20%): 0 mm
Zones (Echerichia coli (E.c.); 1.0%): 0 mm
Zones (Echerichia coli (E.c.); .04%): 0 mm
Zones (Echerichia coli (E.c.); .20%): 5.8 mm
Zones (E.c.; 1.0%): 9.8 mm
Zones (E.c.; 5.0%): 19.8 mm
Zones (E.c.; .04%): 0 mm
Zones (E.c.; .20%): 5.8 mm
Zones (P.a.; 1.0%): 0 mm
Zones (P.a.; 5.0%): 0 mm
Zones (P.a.; .20%): 0.3 mm
Zones (S.a.; 1.0%): 21.3 mm
Zones (S.a.; 5.0%): 26.3 mm
Zones (S.a.; .04%): 6.3 mm
Zones (S.a.; .20%): 15.8 mm
Zones ([6]; 1.0%): 0 mm
Zones ([6]; 5.0%): 0 mm
Zones ([6]; .04%): 0 mm
Zones ([6]; .20%): 0 mm

Compound: Gentamycin sulfate [reference compound]
Zones ([2]; .04%): slight
Zones (Echerichia coli (E.c.); 5.0%): 9.3 mm
Zones (Echerichia coli (E.c.); .04%): 0 mm
Zones ([6]; 5.0%): 6.8 mm
Zones ([6]; .04%): 0 mm
Zones ([6]; .20%): 3.3 mm

More lines, main results first:

MIC (Candida albicans (yeast)): 4 µg/mL (≈ 15.4 µM)
MIC (Pseudomonas aeruginosa): 8 µg/mL (≈ 30.8 µM)
MIC (Escherichia coli): 8 µg/mL (≈ 30.8 µM)
MIC (Aspergillus niger): 4 µg/mL (≈ 15.4 µM)
MIC (Aureobasidium pullulans): 8 µg/mL (≈ 30.8 µM)
MIC (Staphylococcus aureus): 4 µg/mL (≈ 15.4 µM)
Compound: O=c1cc(Cl)sn1Cc1ccc(Cl)cc1 [5-chloro-2-(p-chlorobenzyl)-4-isothiazolin-3-one]

solubility (Solubility in H2O): 96 µg/mL (≈ 350 µM)
Compound: O=c1c(Cl)c(Cl)sn1CCc1ccccc1 [Compound 3, 4,5-Dichloro-N-- 2-phenethyl-isothiazolin-3-one]
Zone of Inhibition ([1]; 0.05%): 0 mm
Zone of Inhibition ([1]; 0.1%): 0 mm
Zone of Inhibition ([1]; 0.5%): 3.8 mm
Zone of Inhibition ([2]; 0.05%): 1.8 mm
Zone of Inhibition ([2]; 0.1%): 4.3 mm
Zone of Inhibition ([2]; 0.5%): 10.8 mm
Zone of Inhibition (Echerichia coli (E.c.); 0.05%): 0 mm
Zone of Inhibition (Echerichia coli (E.c.); 0.1%): 0 mm
Zone of Inhibition (Echerichia coli (E.c.); 0.5%): 1.8 mm
Growth on Film ([3]; 0.05%): 2
Growth on Film ([3]; 0.1%): 0
Growth on Film ([3]; 0.5%): 0
Growth on Film (Aspergillis niger (A.n.) [4]; 0.05%): 1
Growth on Film (Aspergillis niger (A.n.) [4]; 0.1%): 0
Growth on Film (Aspergillis niger (A.n.) [4]; 0.5%): 0
Zone of Inhibition (Aspergillis niger (A.n.) [5]; 0.05%): 0 mm
Zone of Inhibition (Aspergillis niger (A.n.) [5]; 0.1%): 0 mm
Zone of Inhibition (Aspergillis niger (A.n.) [5]; 0.5%): 4.8 mm

solubility (Solubility in H2O): 143 µg/mL (≈ 563 µM)
Compound: CCCCCCn1sc(Cl)c(Cl)c1=O [Compound 4, 4,5-Dichloro-N--n-hexyl-isothiazolin-3-one]
Zone of Inhibition ([1]; 0.05%): 0 mm
Zone of Inhibition ([1]; 0.1%): 0 mm
Zone of Inhibition ([1]; 0.5%): 2.8 mm
Zone of Inhibition ([2]; 0.05%): 1.3 mm
Zone of Inhibition ([2]; 0.1%): 2.3 mm
Zone of Inhibition ([2]; 0.5%): 9.3 mm
Zone of Inhibition (Echerichia coli (E.c.); 0.05%): 0 mm
Zone of Inhibition (Echerichia coli (E.c.); 0.1%): 0 mm
Zone of Inhibition (Echerichia coli (E.c.); 0.5%): 0.8 mm
Growth on Film ([3]; 0.05%): 3
Growth on Film ([3]; 0.1%): 0
Growth on Film ([3]; 0.5%): 0
Growth on Film (Aspergillis niger (A.n.) [4]; 0.05%): 0
Growth on Film (Aspergillis niger (A.n.) [4]; 0.1%): 0
Growth on Film (Aspergillis niger (A.n.) [4]; 0.5%): 0
Zone of Inhibition (Aspergillis niger (A.n.) [5]; 0.05%): 0 mm
Zone of Inhibition (Aspergillis niger (A.n.) [5]; 0.1%): 0 mm
Zone of Inhibition (Aspergillis niger (A.n.) [5]; 0.5%): 3.8 mm

MIC (Candida albicans (yeast)): 5 µg/mL (≈ 17.7 µM)
MIC (Pseudomonas aeruginosa): 16 µg/mL (≈ 56.7 µM)
MIC (Escherichia coli): 16 µg/mL (≈ 56.7 µM)
MIC (Aspergillus niger): 9 µg/mL (≈ 31.9 µM)
MIC (Aureobasidium pullulans): 5 µg/mL (≈ 17.7 µM)
MIC (Staphylococcus aureus): 4 µg/mL (≈ 14.2 µM)
Compound: CCCCCCCCn1sc(Cl)c(Cl)c1=O [Compound 5, 4,5-Dichloro-N--n-octyl-isothiazolin-3-one]
Zone of Inhibition ([1]; 0.05%): 0 mm
Zone of Inhibition ([1]; 0.1%): 0 mm
Zone of Inhibition ([1]; 0.5%): 0 mm
Zone of Inhibition ([2]; 0.05%): 0 mm
Zone of Inhibition ([2]; 0.1%): 0.3 mm
Zone of Inhibition ([2]; 0.5%): 3.3 mm
Zone of Inhibition (Echerichia coli (E.c.); 0.05%): 0 mm
Zone of Inhibition (Echerichia coli (E.c.); 0.1%): 0 mm
Zone of Inhibition (Echerichia coli (E.c.); 0.5%): 0 mm
Zone of Inhibition (E.c.; Conc. 10): 0 mm
Zone of Inhibition (E.c.; Conc. 100): 0 mm
Zone of Inhibition (E.c.; Conc. 1000): 0.8 mm
Growth on Film ([3]; 0.05%): 5
Growth on Film ([3]; 0.1%): 3
Growth on Film ([3]; 0.5%): 1
Growth on Film (Aspergillis niger (A.n.) [4]; 0.05%): 5
Growth on Film (Aspergillis niger (A.n.) [4]; 0.1%): 3
Growth on Film (Aspergillis niger (A.n.) [4]; 0.5%): 0
Zone of Inhibition (S.a.; Conc. 10): 0 mm
Zone of Inhibition (S.a.; Conc. 100): 1.8 mm
Zone of Inhibition (S.a.; Conc. 1000): 8.8 mm
Zone of Inhibition (Aspergillis niger (A.n.) [5]; 0.05%): 0 mm
Zone of Inhibition (Aspergillis niger (A.n.) [5]; 0.1%): 0 mm
Zone of Inhibition (Aspergillis niger (A.n.) [5]; 0.5%): 0 mm

solubility (Solubility in H2O): 25 µg/mL (≈ 93.2 µM)
Compound: CCCCCCCn1sc(Cl)c(Cl)c1=O [Compound 6, 4,5-Dichloro-N--n-heptyl-isothiazolin-3-one]
Zone of Inhibition ([1]; 0.05%): 3 mm
Zone of Inhibition ([1]; 0.1%): 1 mm
Zone of Inhibition ([1]; 0.5%): 0 mm
Zone of Inhibition ([2]; 0.05%): 0 mm
Zone of Inhibition ([2]; 0.1%): 1.3 mm
Zone of Inhibition ([2]; 0.5%): 4.3 mm
Zone of Inhibition (Echerichia coli (E.c.); 0.05%): 0 mm
Zone of Inhibition (Echerichia coli (E.c.); 0.1%): 0 mm
Zone of Inhibition (Echerichia coli (E.c.); 0.5%): 0 mm
Growth on Film ([3]; 0.05%): 3
Growth on Film ([3]; 0.1%): 2
Growth on Film ([3]; 0.5%): 0
Growth on Film (Aspergillis niger (A.n.) [4]; 0.05%): 0
Growth on Film (Aspergillis niger (A.n.) [4]; 0.1%): 0
Growth on Film (Aspergillis niger (A.n.) [4]; 0.5%): 0
Zone of Inhibition (Aspergillis niger (A.n.) [5]; 0.05%): 0 mm
Zone of Inhibition (Aspergillis niger (A.n.) [5]; 0.1%): 0 mm
Zone of Inhibition (Aspergillis niger (A.n.) [5]; 0.5%): 0 mm
